Experimental data published in the NIST ThermoML archive (doi:10.1016/j.tca.2008.05.004).
“And” between values parts separate entries of the source, which are not always exact repeats. Equal entries are not always repeated. ± gives the expanded uncertainty stated by the source.

Assay: molar heat capacity at constant pressure
Conditions: 101.33 kPa, Crystal, Small (less than 1 g) adiabatic calorimetry

O=P([O-])([O-])[O-].[La+3] [lanthanum orthophosphate]
Conditions | molar heat capacity at constant pressure
129.4 K | 58.21 ± 0.43 J/K/mol
130 K | 58.4 ± 0.43 J/K/mol
131.85 K | 59.09 ± 0.44 J/K/mol
134.29 K | 59.99 ± 0.44 J/K/mol
136.73 K | 60.84 ± 0.44 J/K/mol
139.17 K | 61.67 ± 0.45 J/K/mol
140 K | 62.1 ± 0.45 J/K/mol
141.61 K | 62.6 ± 0.45 J/K/mol
144.05 K | 63.49 ± 0.45 J/K/mol
146.46 K | 64.31 ± 0.46 J/K/mol
148.9 K | 65.12 ± 0.46 J/K/mol
150 K | 65.6 ± 0.46 J/K/mol
151.33 K | 65.92 ± 0.46 J/K/mol
153.76 K | 66.8 ± 0.47 J/K/mol
156.18 K | 67.59 ± 0.47 J/K/mol
158.61 K | 68.21 ± 0.47 J/K/mol
160 K | 68.93 ± 0.48 J/K/mol
161.03 K | 69.15 ± 0.48 J/K/mol
163.45 K | 69.96 ± 0.48 J/K/mol
165.87 K | 70.75 ± 0.48 J/K/mol
168.29 K | 71.39 ± 0.49 J/K/mol
170 K | 72.09 ± 0.49 J/K/mol
170.7 K | 72.25 ± 0.49 J/K/mol
173.11 K | 73.03 ± 0.49 J/K/mol
175.52 K | 73.72 ± 0.49 J/K/mol
177.92 K | 74.42 ± 0.5 J/K/mol
180 K | 75.12 ± 0.5 J/K/mol
180.31 K | 75.07 ± 0.5 J/K/mol
182.7 K | 75.83 ± 0.5 J/K/mol
185.04 K | 76.53 ± 0.51 J/K/mol
187.44 K | 77.24 ± 0.51 J/K/mol
189.83 K | 77.9 ± 0.51 J/K/mol
190 K | 78.01 ± 0.51 J/K/mol
192.21 K | 78.51 ± 0.51 J/K/mol
199.36 K | 80.46 ± 0.52 J/K/mol
200 K | 80.78 ± 0.52 J/K/mol
202.14 K | 81.27 ± 0.53 J/K/mol
205.3 K | 82.08 ± 0.53 J/K/mol
208.46 K | 82.89 ± 0.53 J/K/mol
210 K | 83.44 ± 0.53 J/K/mol
211.61 K | 83.64 ± 0.53 J/K/mol
214.75 K | 84.46 ± 0.54 J/K/mol
217.89 K | 85.24 ± 0.54 J/K/mol
220 K | 85.98 ± 0.54 J/K/mol
220.27 K | 86.55 ± 0.55 J/K/mol
223.51 K | 87.38 ± 0.55 J/K/mol
226.73 K | 88.15 ± 0.55 J/K/mol
229.94 K | 88.77 ± 0.56 J/K/mol
230 K | 88.41 ± 0.55 J/K/mol
233.13 K | 89.33 ± 0.56 J/K/mol
236.34 K | 89.95 ± 0.56 J/K/mol
239.53 K | 90.87 ± 0.56 J/K/mol
240 K | 90.75 ± 0.56 J/K/mol
242.69 K | 91.56 ± 0.57 J/K/mol
245.83 K | 92.05 ± 0.57 J/K/mol
248.99 K | 92.61 ± 0.57 J/K/mol
250 K | 92.99 ± 0.57 J/K/mol
252.14 K | 93.33 ± 0.57 J/K/mol
255.28 K | 94.2 ± 0.58 J/K/mol
258.37 K | 94.93 ± 0.58 J/K/mol
260 K | 95.13 ± 0.58 J/K/mol
261.31 K | 95.4 ± 0.58 J/K/mol
264.37 K | 95.93 ± 0.58 J/K/mol
267.41 K | 96.5 ± 0.59 J/K/mol
270 K | 97.19 ± 0.59 J/K/mol
270.48 K | 97.19 ± 0.59 J/K/mol
273.52 K | 97.78 ± 0.59 J/K/mol
276.54 K | 98.45 ± 0.59 J/K/mol
279.55 K | 99 ± 0.6 J/K/mol
280 K | 99.17 ± 0.6 J/K/mol
282.53 K | 99.55 ± 0.6 J/K/mol
285.49 K | 100.2 ± 0.6 J/K/mol
288.42 K | 100.6 ± 0.6 J/K/mol
290 K | 101.1 ± 0.6 J/K/mol
291.33 K | 101.2 ± 0.6 J/K/mol
294.21 K | 101.7 ± 0.6 J/K/mol
297.05 K | 102.3 ± 0.6 J/K/mol
299.79 K | 102.8 ± 0.6 J/K/mol
300 K | 102.9 ± 0.6 J/K/mol
302.76 K | 103.4 ± 0.6 J/K/mol
306.59 K | 104.1 ± 0.6 J/K/mol
310.93 K | 105 ± 0.6 J/K/mol
315.5 K | 105.8 ± 0.6 J/K/mol
320 K | 106.5 ± 0.6 J/K/mol and 106.3 ± 0.6 J/K/mol
324.45 K | 106.9 ± 0.6 J/K/mol
340 K | 109.4 ± 0.6 J/K/mol
360 K | 112.3 ± 0.7 J/K/mol
373 K | 113.9 ± 0.7 J/K/mol
400 K | 117.1 ± 0.7 J/K/mol
450 K | 122 ± 0.7 J/K/mol
500 K | 126 ± 0.7 J/K/mol
550 K | 129.4 ± 0.7 J/K/mol
600 K | 132.4 ± 0.7 J/K/mol
650 K | 135.2 ± 0.7 J/K/mol
700 K | 137.7 ± 0.8 J/K/mol
750 K | 140.1 ± 0.8 J/K/mol
800 K | 142.4 ± 0.8 J/K/mol
850 K | 144.6 ± 0.8 J/K/mol
900 K | 146.7 ± 0.8 J/K/mol
950 K | 148.7 ± 0.8 J/K/mol
1000 K | 150.8 ± 0.8 J/K/mol
1050 K | 152.8 ± 0.8 J/K/mol
1100 K | 154.7 ± 0.8 J/K/mol
1150 K | 156.6 ± 0.8 J/K/mol
1200 K | 158.5 ± 0.8 J/K/mol
1250 K | 160.4 ± 0.8 J/K/mol
1300 K | 162.3 ± 0.9 J/K/mol
1350 K | 164.2 ± 0.9 J/K/mol
1400 K | 166 ± 0.9 J/K/mol
1450 K | 167.9 ± 0.9 J/K/mol
1500 K | 169.7 ± 0.9 J/K/mol
1550 K | 171.5 ± 0.9 J/K/mol
1600 K | 173.4 ± 0.9 J/K/mol
